Results as given in ChEMBL document CHEMBL4342421, “Current scenario of tetrazole hybrids for antibacterial activity” (Eur J Med Chem, 2019).
Values after ≈ are worked out from the molar mass of the structure shown.

Assays:
Type in all cases: functional
[1] = tested on: Pseudomonas aeruginosa; assay: Antimicrobial activity against Pseudomonas aeruginosa
[2] = tested on: Escherichia coli; assay: Antimicrobial activity against Escherichia coli
[3] = tested on: Staphylococcus aureus; assay: Antimicrobial activity against Staphylococcus aureus
[4] = tested on: Bacillus subtilis; assay: Antimicrobial activity against Bacillus subtilis
[5] = tested on: Aspergillus niger; assay: Antifungal activity against Aspergillus niger
[6] = tested on: Candida albicans; assay: Antifungal activity against Candida albicans

Row | Structure (SMILES) | MIC [1] [µg/mL] | MIC [2] [µg/mL] | MIC [3] [µg/mL] | MIC [4] [µg/mL] | MIC [5] [µg/mL] | MIC [6] [µg/mL]
1 | c1ccc(CCNc2c(-c3cc4ccccc4n4nnnc34)nc3sccn23)cc1 | > 320 | > 320 | > 320 |  |  | 
2 | Cc1cccc2oc(-c3ccc(F)cc3)c(OCc3nnn[nH]3)c(=O)c12 | 50 to 400 (≈ 142 to 1140 µM) | 50 to 400 (≈ 142 to 1140 µM) | 50 to 400 (≈ 142 to 1140 µM) | 50 to 400 (≈ 142 to 1140 µM) |  | 
3 | COc1ccc(/C=C2\SC(=O)N(Cc3ccc(-c4ccccc4-c4nnn[nH]4)cc3)C2=O)cc1OC |  | 7.75 to 35.4 (≈ 15.5 to 70.9 µM) |  | 7.75 to 35.4 (≈ 15.5 to 70.9 µM) |  | 
4 | Cc1ccc2c(c1)cc(C1CC(c3ccccn3)=NN1C(N)=S)c1nnnn12 (stereo unspecified) | 3.12 to 100 (≈ 8.04 to 257 µM) | 3.12 to 100 (≈ 8.04 to 257 µM) | 3.12 to 100 (≈ 8.04 to 257 µM) |  | 3.12 to 100 (≈ 8.04 to 257 µM) | 3.12 to 100 (≈ 8.04 to 257 µM)
5 | Cc1ccc2c(c1)cc(/C=C/C(=O)c1ccc(Cl)cc1)c1nnnn12 | 6.25 to 100 (≈ 17.9 to 287 µM) | 6.25 to 100 (≈ 17.9 to 287 µM) | 6.25 to 100 (≈ 17.9 to 287 µM) |  | 6.25 to 100 (≈ 17.9 to 287 µM) | 6.25 to 100 (≈ 17.9 to 287 µM)
6 | COc1cc(/C=C2\SC(=O)N(Cc3ccc(-c4ccccc4-c4nnn[nH]4)cc3)C2=O)cc(OC)c1 |  | 7.75 to 35.4 (≈ 15.5 to 70.9 µM) |  | 7.75 to 35.4 (≈ 15.5 to 70.9 µM) |  | 
7 | COc1ccc(Nc2c(-c3cc4ccccc4n4nnnc34)nc3sc(C#N)cn23)cc1 | > 320 | > 320 | > 320 |  |  | 
8 | Cc1ccc2cc(/C=C/C(=O)c3ccc(Cl)cc3)c3nnnn3c2c1 | 6.25 to 100 (≈ 17.9 to 287 µM) | 6.25 to 100 (≈ 17.9 to 287 µM) | 6.25 to 100 (≈ 17.9 to 287 µM) |  | 6.25 to 100 (≈ 17.9 to 287 µM) | 6.25 to 100 (≈ 17.9 to 287 µM)
9 | CC(C)(C)Nc1c(-c2cc3ccccc3n3nnnc23)nc2sc(C#N)cn12 | > 320 | > 320 | > 320 |  |  | 
10 | COc1ccc(Nc2c(-c3cc4ccccc4n4nnnc34)nc3sccn23)cc1 | > 320 | > 320 | > 320 |  |  | 
11 | Cc1ccc2c(=O)c(OCc3nnn[nH]3)c(-c3ccc(F)cc3)oc2c1 | 50 to 400 (≈ 142 to 1140 µM) | 50 to 400 (≈ 142 to 1140 µM) | 50 to 400 (≈ 142 to 1140 µM) | 50 to 400 (≈ 142 to 1140 µM) |  | 
12 | O=C1S/C(=C\c2ccccc2)C(=O)N1Cc1ccc(-c2ccccc2-c2nnn[nH]2)cc1 |  | 7.75 to 35.4 (≈ 17.6 to 80.6 µM) |  | 7.75 to 35.4 (≈ 17.6 to 80.6 µM) |  | 
13 | c1ccc2c(c1)cc(-c1nc3sccn3c1NC1CCCCC1)c1nnnn12 | > 320 | > 320 | > 320 |  |  | 
14 | Cc1ccc2cc(/C=C/C(=O)c3ccccc3)c3nnnn3c2c1 | 6.25 to 100 (≈ 19.9 to 318 µM) | 6.25 to 100 (≈ 19.9 to 318 µM) | 6.25 to 100 (≈ 19.9 to 318 µM) |  | 6.25 to 100 (≈ 19.9 to 318 µM) | 6.25 to 100 (≈ 19.9 to 318 µM)
15 | Cc1ccc2c(c1)cc(/C=C/C(=O)c1ccccn1)c1nnnn12 | 6.25 to 100 (≈ 19.8 to 317 µM) | 6.25 to 100 (≈ 19.8 to 317 µM) | 6.25 to 100 (≈ 19.8 to 317 µM) |  | 6.25 to 100 (≈ 19.8 to 317 µM) | 6.25 to 100 (≈ 19.8 to 317 µM)
16 | Cc1ccc2c(c1)cc(C1CC(c3cccs3)=NN1C(N)=S)c1nnnn12 (stereo unspecified) | 3.12 to 100 (≈ 7.94 to 254 µM) | 3.12 to 100 (≈ 7.94 to 254 µM) | 3.12 to 100 (≈ 7.94 to 254 µM) |  | 3.12 to 100 (≈ 7.94 to 254 µM) | 3.12 to 100 (≈ 7.94 to 254 µM)
17 | COc1cc(Cc2cnc(N)nc2N)cc(OC)c1OC [TRIMETHOPRIM] | 500 (≈ 1720 µM) | 125 (≈ 431 µM) | 250 (≈ 861 µM) |  |  | 
18 | N#Cc1cn2c(NC3CCCCC3)c(-c3cc4ccccc4n4nnnc34)nc2s1 | > 320 | > 320 | > 320 |  |  | 
19 | c1cc(-c2nnn[nH]2)cc(-c2nnn[nH]2)c1 | 125 to 1000 (≈ 584 to 4670 µM) | 125 to 1000 (≈ 584 to 4670 µM) | 125 to 1000 (≈ 584 to 4670 µM) |  |  | 
20 | COc1ccc(C(=O)/C=C/c2cc3cc(C)ccc3n3nnnc23)cc1 | 6.25 to 100 (≈ 18.1 to 290 µM) | 6.25 to 100 (≈ 18.1 to 290 µM) | 6.25 to 100 (≈ 18.1 to 290 µM) |  | 6.25 to 100 (≈ 18.1 to 290 µM) | 6.25 to 100 (≈ 18.1 to 290 µM)
21 | Fc1ccc2c(c1)sc1nc(-c3cc4ccccc4n4nnnc34)c(NCCc3ccccc3)n12 | > 320 | > 320 | > 320 |  |  | 
